Experimental data reported in PubChem BioAssay AID1918948 (Molecular Pharmacology Branch, DTP, NCI, 2023).
Several values for one entry are separate records, joined by “and”; a condition that tells them apart may be missing. Equal entries are not always repeated. Values belong to the molecule of their own block, whether it stands above or below them.

Test system: K-562 leukemia growth, % test/control
Test: Anticancer human tumor K-562 cell line growth inhibition;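 further: spheroids exposed to compounds for 7 days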;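 on viability, T/C: 100% = DMSO vehicle wells and lower values mean fewer viable cells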
Details: spheroids with HUVEC and MSC; for viability, T/C: stronger effect = lower value
Text: Multicellular complex tumor spheroid response to LSD1 Inhibitor Iadademstat in combination with a variety of drugs and investigational agents in selected tumor cell lines
The current study was undertaken to assess response to LSD1 inhibitors in combination with standard-of-care drugs and investigational agents in solid tumor complex spheroid models as well as in the K-562 leukemia. Complex spheroids include a stromal component modeled by human endothelial cells (HUVEC) and fibroblasts modeled by human mesenchymal stem cells (MSCs). The concentration ranges selected for each drug and investigational agent were based upon clinically achievable concentrations if the clinical Cmax of the agent was known.
Compounds. The drugs and investigational agents used in this study are listed on Table 1. All of the agents used, including staurosporine (NSC755774) and gemcitabine (NSC613327), were obtained from the Developmental Therapeutics Program, NCI. FDA-approved anticancer drugs are available from the NCI at http://dtp.nci.nih.gov/branches/dscb/oncology_drugset_explanation.html. Drugs and investigational agents were >95% pure by proton nuclear magnetic resonance (NMR) and liquid chromatography/mass spectrometry (LC/MS). Stock solutions were prepared at 400x in DMSO, stored at -70 degrees C, and diluted in fresh medium prior to their use. The final concentration of DMSO in cell culture wells never exceeded 0.25% (v/v). The FDA-approved anticancer drug set is available from the Developmental Therapeutics Program at https://dtp.cancer.gov/organization/dscb/obtaining/available_plates.htm. All drugs and investigational agents were tested over a range starting from a high concentration at or near the clinical Cmax and decreasing in half-log increments. If the clinical Cmax for an agent had not been determined, the highest concentration tested was 10 microM.
Cell Lines. The patient-derived cancer cell (PDC) lines: 292921-168-R-J2-PDC, K24384-001-R-PDC, and 521955-158-R2-J5-PDC pancreatic carcinomas, 556581-035-R-J1 ovarian carcinoma, 324938-238-R-J1-PDC, 855422-203-R-J1-PDC and 883617-216-R-J1-PDC urothelial bladder carcinomas, 743489-274-T-PDC renal cell carcinoma, 138582-R-J1 Merkel cell tumor, K60290-347-R-J1 and K57222-313-R-J1-PDC glioblastomas, 653999-131-R-J2-PDC, LG0703-F948-PDC, and 349418-098-R-PDC non-small cell lung carcinomas, 885512-296-R-J2-PDC, 171881-019-R-J1-PDC breast carcinomas and 186277-243-T-J2-PDC and 233499-124-R-J2-PDC colon carcinomas were obtained from the NCI Patient-Derived Models Repository (PDMR, https://pdmr.cancer.gov). The established cell lines NCI/ADR-RES (RRID:CVCL_14520 and OVCAR-5 (RRID:CVCL_1628) ovarian carcinomas, 786-O (RRID:CVCL_1051) and A498 (RRID:CVCL_A498) renal cell carcinoma, NCI-H211 (ATCC, cat. CRL-5824; RRID:CVCL_1529), NCI-H196 (ATCC, cat. CRL-5823, RRID:CVCL_1509), SW 1271 (ATCC, cat. CRL-2177, RRID:CVCL_1716) and NCI-H1876 (ATCC, cat. CRL-5902, RRID:CVCL_1503) small cell lung carcinomas, MDA-MB-231 (RRID:CVCL_0062) and MDA-MB-468 (RRID:CVCL_0419)breast carcinomas (10-12). Pooled donor human umbilical vein endothelial cells (HUVEC, Lonza, cat. CC-2519) and human mesenchymal stem cells (hMSC, Lonza, cat. PT-2501) were purchased from Lonza (Walkersville, MD).
Cell Culture. All cells were maintained in an incubator at 37 degrees C and 5% CO2 with 95% humidity. The PDC lines were cultured according to standard operating procedures established by the NCI PDMR (https://pdmr.cancer.gov). Briefly all PDCs were thawed and cultured in Matrigel-coated flasks prepared with a working solution of 1X Ham's F-12 nutrient mix, without supplementation (Invitrogen, Waltham, MA, cat. 11765054), 100 U/mL penicillin-streptomycin (Invitrogen, cat. 15140122), and 2.5% Matrigel (Corning Inc., Corning, NY, cat. 354248) for the first three passages. […]

[1] = curve of first compound, second compound 0.1 µM
[2] = curve of first compound, second compound 0.316 µM
[3] = curve of first compound, second compound 1 µM
[4] = curve of first compound, second compound 3.16 µM
[5] = curve of first compound, second compound 10 µM

Structure (SMILES): CC1COCCN1c1cc(C2(S(C)(=N)=O)CC2)nc(-c2ccnc3[nH]ccc23)n1 (stereo unspecified) + NC1CC1c1ccc(-c2cccc(O)c2)cc1
IC50 [1]: 1590 nM
IC50 [2]: 1580 nM
IC50 [3]: 1500 nM
IC50 [4]: 1490 nM
IC50 [5]: 1350 nM
viability, T/C (second compound 0.1 µM, first compound 0.0316 µM): 115%
viability, T/C (second compound 0.1 µM, first compound 0.1 µM): 107%
viability, T/C (second compound 0.1 µM, first compound 0.316 µM): 108%
viability, T/C (second compound 0.1 µM, first compound 1 µM): 77.3%
viability, T/C (second compound 0.1 µM, first compound 3.16 µM): 9.88%
viability, T/C (second compound 0.1 µM, first compound 10 µM): 2.95%
viability, T/C (second compound 0.316 µM, first compound 0.0316 µM): 100%
viability, T/C (second compound 0.316 µM, first compound 0.1 µM): 107%
viability, T/C (second compound 0.316 µM, first compound 0.316 µM): 101%
viability, T/C (second compound 0.316 µM, first compound 1 µM): 77.9%
viability, T/C (second compound 0.316 µM, first compound 3.16 µM): 7.2%
viability, T/C (second compound 0.316 µM, first compound 10 µM): 2.06%
viability, T/C (second compound 1 µM, first compound 0.0316 µM): 105%
viability, T/C (second compound 1 µM, first compound 0.1 µM): 104%
viability, T/C (second compound 1 µM, first compound 0.316 µM): 103%
viability, T/C (second compound 1 µM, first compound 1 µM): 74%
viability, T/C (second compound 1 µM, first compound 3.16 µM): 6.19%
viability, T/C (second compound 1 µM, first compound 10 µM): 1.92%
viability, T/C (second compound 3.16 µM, first compound 0.0316 µM): 109%
viability, T/C (second compound 3.16 µM, first compound 0.1 µM): 105%
viability, T/C (second compound 3.16 µM, first compound 0.316 µM): 99.2%
viability, T/C (second compound 3.16 µM, first compound 1 µM): 72.8%
viability, T/C (second compound 3.16 µM, first compound 3.16 µM): 6.87%
viability, T/C (second compound 3.16 µM, first compound 10 µM): 2.7%
viability, T/C (second compound 10 µM, first compound 0.0316 µM): 105%
viability, T/C (second compound 10 µM, first compound 0.1 µM): 105%
viability, T/C (second compound 10 µM, first compound 0.316 µM): 106%
viability, T/C (second compound 10 µM, first compound 1 µM): 65.7%
viability, T/C (second compound 10 µM, first compound 3.16 µM): 5.01%
viability, T/C (second compound 10 µM, first compound 10 µM): 2.52%

IC50 (compound alone, run of 01/18/2022): > 10000 nM
Structure (SMILES): NC1CCC(NC2CC2c2ccccc2)CC1 (stereo unspecified)
viability, T/C (compound 0.1 µM): 99% [middle of 24 runs]
viability, T/C (compound 0.316 µM): 100% and 101% and 98.9%
viability, T/C (compound 1 µM): 103% [middle of 25 runs]
viability, T/C (compound 3.16 µM): 103% [middle of 25 runs]
viability, T/C (compound 10 µM): 100% [middle of 23 runs]

Structure (SMILES): CCN(c1cc(-c2ccc(CN3CCOCC3)cc2)cc(C(=O)NCc2c(C)cc(C)[nH]c2=O)c1C)C1CCOCC1 + NC1CCC(NC2CC2c2ccccc2)CC1
IC50 [1]: > 3000 nM
IC50 [2]: > 3000 nM
IC50 [3]: > 3000 nM
IC50 [4]: > 3000 nM
IC50 [5]: 2220 nM
viability, T/C (second compound 0.1 µM, first compound 0.00949 µM): 112%
viability, T/C (second compound 0.1 µM, first compound 0.03 µM): 107%
viability, T/C (second compound 0.1 µM, first compound 0.0949 µM): 106%
viability, T/C (second compound 0.1 µM, first compound 0.3 µM): 106%
viability, T/C (second compound 0.1 µM, first compound 0.949 µM): 106%
viability, T/C (second compound 0.1 µM, first compound 3 µM): 98.8%
viability, T/C (second compound 0.316 µM, first compound 0.00949 µM): 112%
viability, T/C (second compound 0.316 µM, first compound 0.03 µM): 109%
viability, T/C (second compound 0.316 µM, first compound 0.0949 µM): 107%
viability, T/C (second compound 0.316 µM, first compound 0.3 µM): 108%
viability, T/C (second compound 0.316 µM, first compound 0.949 µM): 105%
viability, T/C (second compound 0.316 µM, first compound 3 µM): 101%
viability, T/C (second compound 1 µM, first compound 0.00949 µM): 113%
viability, T/C (second compound 1 µM, first compound 0.03 µM): 112%
viability, T/C (second compound 1 µM, first compound 0.0949 µM): 106%
viability, T/C (second compound 1 µM, first compound 0.3 µM): 109%
viability, T/C (second compound 1 µM, first compound 0.949 µM): 105%
viability, T/C (second compound 1 µM, first compound 3 µM): 99.5%
viability, T/C (second compound 3.16 µM, first compound 0.00949 µM): 113%
viability, T/C (second compound 3.16 µM, first compound 0.03 µM): 110%
viability, T/C (second compound 3.16 µM, first compound 0.0949 µM): 107%
viability, T/C (second compound 3.16 µM, first compound 0.3 µM): 106%
viability, T/C (second compound 3.16 µM, first compound 0.949 µM): 104%
viability, T/C (second compound 3.16 µM, first compound 3 µM): 95%
viability, T/C (second compound 10 µM, first compound 0.00949 µM): 103%
viability, T/C (second compound 10 µM, first compound 0.03 µM): 101%
viability, T/C (second compound 10 µM, first compound 0.0949 µM): 93.7%
viability, T/C (second compound 10 µM, first compound 0.3 µM): 86%
viability, T/C (second compound 10 µM, first compound 0.949 µM): 69.4%
viability, T/C (second compound 10 µM, first compound 3 µM): 42.9%
